Legend:
[1] = system: ECS-induced learning disability; experiment: Electric convulsion shock (ECS)-induced learning disability (mouse passive avoidance test); type: in vivo, male ddY mouse; conditions: dosed intraperitoneally; step-through latency, p<0.05
From the text: 4. Electric Convulsion Shock (ECS)—Induced Learning Disability (Mouse Passive Avoidance Test)
With reference to the previous report (Eur J Pharmacology, 321; 273–278, 1997), assessment was done as follows. • Animal: male ddY mouse (Nippon SLC; age 5 weeks at training) was used. 16 animals were used per one group. <Experimental Procedures> Preparation of Chemical Agents A test compound for oral administration was suspended in aqueous 0.5% methyl cellulose solution, and for intraperitoneal administration was suspended in solution dissolved 0.5% of methyl cellulose solution in saline The dose administered was 10 ml per 1 kg·body weight. As a placebo of the test compound, 10 ml of aqueous 0.5% methyl cellulose solution for oral administration and 10 ml of 0.5% methyl cellulose solution in saline for intraperitoneal administration (herein referred to as vehicle) was administrated. […] Test (24 Hours after the Training) • (1) The animals were left in the experimental room for one hour or longer. • (2) After the mice were placed in the bright room and left for 30 seconds, the guillotine door was opened. • (3) The time (step-through latency) required for the mice to cross the sensor of the dark room from the opening of the guillotine door was counted. […] A significance was determined at p<0.05.

[2] = system: (+)-HA966-induced learning disability; experiment: (+)-HA966-induced learning disability (mouse passive avoidance test); type: in vivo, male ddY mouse; conditions: dosed intraperitoneally; step-through latency, p<0.05
From the text: 3. (+)-HA966-Induced Learning Disability (Mouse Passive Avoidance Test)
• Animal: male ddY mouse (Nippon SLC; age 7 to 9 weeks at training) was used. 16 to 32 animals were used per one group. <Experimental Procedures> Preparation of Pharmaceutical Drugs • (1) A test compound for oral administration was suspended in aqueous 0.5%methyl cellulose solution, and for intraperitoneal administration was suspended in solution dissolved 0.5% of methyl cellulose solution in saline (hereinafter referred to as 0.5% methyl cellulose solution). The administration volume was 10 ml per 1 kg·body weight. […]
• (1) On day 1 at the learning experiment, the mice were acclimated in an experimental room for one hour or longer. • (2) A test compound or the vehicle was orally or intraperitoneally given. • (3) 20 minutes thereafter, (+)-HA966 was administered at 60 μg intracerebroventriculally. • (4) 15 minutes after the dosing of (+)-HA966, the each mouse was placed in the bright room of the experimental apparatus of the passive avoidance reaction test, where the mouse was left for 30 seconds. […] A significance was determined at p<0.05.

Compound: CC(C)c1nnc(-c2ccc(-c3ccccc3)cc2)n1-c1ccccc1F [Production Example 1, 3-Biphenyl-4-yl-4-(2-fluorophenyl)-5-isopropyl-4H-1,2,4-triazole]
- minimum effective dose [1]: 10 mg/kg
- minimum effective dose [2]: 3 mg/kg
